In ChEMBL document CHEMBL2021836, “Medicinal chemistry approaches to avoid aldehyde oxidase metabolism” (Bioorg Med Chem Lett, 2012) one finds Activity and microsomal CLint data, which are given here for nine compounds.

Data set [1] has as its target T1, Toll-like receptor 7 (Homo sapiens) (UniProt Q9NYK1).
T1 sequence (whole entry): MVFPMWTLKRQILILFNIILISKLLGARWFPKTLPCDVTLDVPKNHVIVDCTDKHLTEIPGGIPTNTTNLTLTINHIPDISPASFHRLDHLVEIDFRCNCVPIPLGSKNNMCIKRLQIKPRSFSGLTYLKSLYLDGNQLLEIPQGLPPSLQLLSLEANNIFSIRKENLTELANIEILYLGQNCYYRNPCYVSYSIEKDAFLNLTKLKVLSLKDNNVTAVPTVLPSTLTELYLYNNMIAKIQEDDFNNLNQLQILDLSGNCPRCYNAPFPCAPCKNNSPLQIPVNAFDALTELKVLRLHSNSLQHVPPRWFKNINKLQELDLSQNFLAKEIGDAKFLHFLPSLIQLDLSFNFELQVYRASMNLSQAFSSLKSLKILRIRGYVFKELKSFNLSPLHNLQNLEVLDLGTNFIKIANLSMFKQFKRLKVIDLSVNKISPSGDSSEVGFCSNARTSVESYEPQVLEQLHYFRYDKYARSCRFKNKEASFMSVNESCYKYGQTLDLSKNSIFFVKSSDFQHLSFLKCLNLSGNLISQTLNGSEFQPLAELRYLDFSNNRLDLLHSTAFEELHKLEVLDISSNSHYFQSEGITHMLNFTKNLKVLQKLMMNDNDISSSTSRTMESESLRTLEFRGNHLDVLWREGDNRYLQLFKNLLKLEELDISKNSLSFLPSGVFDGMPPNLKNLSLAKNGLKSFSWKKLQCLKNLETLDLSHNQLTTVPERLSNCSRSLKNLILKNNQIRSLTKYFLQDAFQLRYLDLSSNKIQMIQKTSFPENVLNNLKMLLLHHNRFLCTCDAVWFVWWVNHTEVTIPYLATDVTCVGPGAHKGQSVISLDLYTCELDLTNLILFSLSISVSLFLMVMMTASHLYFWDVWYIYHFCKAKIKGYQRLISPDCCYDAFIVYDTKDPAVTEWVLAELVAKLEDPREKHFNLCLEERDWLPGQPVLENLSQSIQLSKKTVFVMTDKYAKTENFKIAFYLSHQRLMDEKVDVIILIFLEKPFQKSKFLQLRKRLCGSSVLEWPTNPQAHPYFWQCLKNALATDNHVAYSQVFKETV
Put plainly: Agonist activity at human TLR7 expressed in human PBMCs assessed as reduction in HCV replicon level after 48 hrs by Bright Glo luciferase reporter gene assay. The class given is functional. (In antiviral work, replicon cells carry a viral genome segment that copies itself.)

Data set [2] in a line: Intrinsic clearance in human liver microsomes. The class given is ADME, Microsome. The conditions noted are these: read-out: CLH. On the technique in general: Liver microsomes are vesicles of endoplasmic reticulum, rich in cytochrome P450 enzymes.
The nature of data set [3]: Intrinsic clearance in human cytosol after 45 mins by LC/MS analysis. It counts as ADME.
Data set [4] in a line: Intrinsic clearance in rat liver microsomes. The class given is ADME, Microsome. The conditions noted are these: read-out: CLH.
Data set [5] is described as follows: Intrinsic clearance in rat cytosol after 45 mins by LC/MS analysis. It counts as ADME.

For `Nc1nc(C(F)(F)F)cc2c1[nH]c(=O)n2Cc1ccc(NCC2CC2)nc1`, in data set [1], the Activity was determined as 122 nM.
Same read-out and setting: the same measure for `COc1ccc(Cn2c(=O)[nH]c3c(N)nc(C(F)(F)F)cc32)cn1`: 74 nM; for `Nc1ccc(Cn2c(=O)[nH]c3c(N)nc(C(F)(F)F)cc32)cn1`: 43 nM.
Regarding `Nc1nc(C(F)(F)F)cc2c1[nH]c(=O)n2Cc1ccc(N2CCOCC2)nc1`, the Activity in data set [1] turned out to be 32 nM.
In the case of `Cc1nc(Cn2c(=O)[nH]c3c(N)nc(C(F)(F)F)cc32)co1`, the microsomal CLint in data set [2] was less than 8 µL/min/mg; in data set [3], less than 1 µL/min/mg; in data set [4], less than 10 µL/min/mg; in data set [5], less than 1 µL/min/mg.
Take `CCc1coc(-c2cc3c([nH]c(=O)n3Cc3ccc(C)nc3)c(N)n2)n1`: in data set [1], the Activity was 116 nM.
Same read-out and setting: the same measure for `Nc1nc(C(F)(F)F)cc2c1[nH]c(=O)n2Cc1ccc(C(F)(F)F)nc1`: 75 nM.
In the case of `Cc1nc(Cn2c(=O)[nH]c3c(N)nc(C(F)(F)F)cc32)cs1`, the microsomal CLint in data set [2] is less than 7 µL/min/mg; in data set [3] it was less than 1 µL/min/mg; in data set [4], less than 10 µL/min/mg; in data set [5] it was less than 1 µL/min/mg.
For the compound `Cc1cc(Cn2c(=O)[nH]c3c(N)nc(C(F)(F)F)cc32)no1`, the microsomal CLint in data set [2] was less than 8 µL/min/mg; in data set [3] it was less than 1 µL/min/mg; in data set [4], less than 9 µL/min/mg; in data set [5], less than 1 µL/min/mg.
